Laboratory results as given in patent publication US8394824B2 (priority 2004, dated 2013).

Columns and labels:
[1] = system: ex vivo ileum specimen
[2] = system: specific allergic asthma of guinea pigs; settings: guinea pig, in vivo

SMILES	ileum contraction response resulted from electric irritation [1]	latent period [2] [s]
C[N+]12CCC(CC1)C(OCC(O)(c1ccccc1)C1CCCC1)C2.[Br-] (stereo not drawn) [Example 2, 3-(N-methyl-quinuclidinyl)-(2′-phenyl-2′-cyclopentyl-2′-hydroxyl)ethyl ether bromide]	completely blocked	248.90 ± 38.24
C[N+]12CCC(CC1)C(OCC(O)(c1ccccc1)C1CCCC1)C2.[Br-] (single isomer, unassigned) [Example 3, 1-type diastereoisomer of 3-(N-methyl-quinuclidinyl)-(2′-phenyl-2′-cyclopentyl-2′-hydroxyl)ethyl ether bromide]	completely blocked	243.50 ± 42.13
C[N+]12CCC(CC1)C(OCC(O)(c1ccccc1)C1CCCC1)C2.[Br-] (single isomer, unassigned) [Example 4, II-type diastereoisomer of 3-(N-methyl-quinuclidinyl)-(2′-phenyl-2′-cyclopentyl-1-2′-hydroxyl)ethyl ether bromide]	completely blocked	231.60 ± 37.30
